The values that follow are results of earlier work, collected in paper PMC4284722, “Intrinsic Tryptophan Fluorescence in the Detection and Analysis of Proteins: A Focus on Förster Resonance Energy Transfer Techniques” (International Journal of Molecular Sciences, 2014).

SMILES strings stand for the structures.

The data set deals with serum albumin. More on the design: method as in PMID 2313585, PMID 19683079. The following applies: nonspecific ligand of serum albumin.

Turning to `O=S(=O)(O)c1cccc2cccc(Nc3ccccc3)c12` [ANS, 1-anilinonaphthalene-8-sulfonate], the affinity entry is recorded as “moderate affinity”.
